The subject of assay [1] is methicillin-resistant S. aureus. The note with it: cited from earlier work.
For assay [2], the system named is C. albicans. The note with it: cited from earlier work.
Assay [3] concerns Aspergillus fumigatus. The note with it: cited from earlier work.
For assay [4], the system named is B. subtilis. The note with it: cited from earlier work.
In assay [5] the test system is S. aureus. Particulars: cited from earlier work.
Assay [6] relates to E. coli. Particulars: cited from earlier work.
Assay [7] has as its system S. aureus. The note with it: cited from earlier work. This is another data set of the same source.
Assay [8] has as its system WI38 cells. The note with it: read-out: WI-38 IC50 ± SD; normal WI38 cells, MTT; cited from earlier work.
For assay [9], the system named is C. albicans. The assay is described as follows: Broth dilution MIC/MFC. It counts as cell-based, Candida albicans.
Assay [10] has as its system B. pumilus. The assay is described as follows: Broth dilution MIC/MBC. It counts as cell-based, Bacillus pumilus. In general terms: In broth dilution the organism is exposed to a series of concentrations in liquid medium.
The test system of assay [11] is WI38 cells. The assay is described as follows: In vitro cytotoxicity MTT assay. Particulars: Homo sapiens, WI-38, 48 h, read-out: WI-38 IC50 ± SD.
The subject of assay [12] is E. cloacae. Description: Broth dilution MIC/MBC. It counts as cell-based, Enterobacter cloacae.
Assay [13] concerns S. cerevisiae. Description: Broth dilution MIC/MFC. It counts as cell-based, Saccharomyces cerevisiae.
Assay [14] relates to E. coli. The assay is described as follows: Broth dilution MIC/MBC. It counts as cell-based, Escherichia coli.
In assay [15] the test system is E. coli. Description: Time-kill kinetic test. It counts as cell-based. The note with it: 1x MIC.
Assay [16] deals with S. faecalis. Description: Broth dilution MIC/MBC. It counts as cell-based, Streptococcus faecalis.
Assay [17] deals with DNA gyrase A (Escherichia coli, UniProt P0AES4). Description: DNA gyrase supercoiling assay. It counts as biochemical. The note with it: IC50 ± SD DNA gyrase A, E. coli DNA gyrase supercoiling.
Chain of DNA gyrase A (P0AES4 whole entry): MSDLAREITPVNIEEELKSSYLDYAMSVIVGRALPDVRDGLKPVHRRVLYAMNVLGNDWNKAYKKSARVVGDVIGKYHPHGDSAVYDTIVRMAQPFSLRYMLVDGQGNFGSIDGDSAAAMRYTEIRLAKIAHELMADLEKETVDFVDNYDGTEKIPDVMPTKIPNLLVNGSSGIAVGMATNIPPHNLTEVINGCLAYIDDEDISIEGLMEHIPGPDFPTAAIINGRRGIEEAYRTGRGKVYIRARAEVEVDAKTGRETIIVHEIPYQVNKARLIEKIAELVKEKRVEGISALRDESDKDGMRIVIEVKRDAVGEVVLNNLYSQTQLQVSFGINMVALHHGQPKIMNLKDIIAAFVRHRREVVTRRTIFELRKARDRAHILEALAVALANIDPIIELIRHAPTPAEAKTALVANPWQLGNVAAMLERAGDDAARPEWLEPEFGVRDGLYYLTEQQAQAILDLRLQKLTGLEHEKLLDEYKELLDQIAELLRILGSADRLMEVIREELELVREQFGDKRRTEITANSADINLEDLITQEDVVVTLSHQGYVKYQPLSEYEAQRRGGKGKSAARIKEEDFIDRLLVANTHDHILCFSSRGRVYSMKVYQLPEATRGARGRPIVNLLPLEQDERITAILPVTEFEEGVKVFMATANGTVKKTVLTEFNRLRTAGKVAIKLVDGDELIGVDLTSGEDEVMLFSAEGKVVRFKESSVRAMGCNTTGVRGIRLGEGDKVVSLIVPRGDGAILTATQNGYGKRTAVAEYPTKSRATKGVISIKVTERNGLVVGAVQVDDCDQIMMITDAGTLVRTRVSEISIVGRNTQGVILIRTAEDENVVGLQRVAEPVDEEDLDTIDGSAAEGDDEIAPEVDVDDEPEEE
The subject of assay [18] is Escherichia coli. Particulars: cited from earlier work.
The subject of assay [19] is Pseudomonas aeruginosa. Particulars: cited from earlier work.

A word on the IC50: it is the concentration that inhibits the measured activity by half. What is called MBC is the smallest concentration meeting the test's criterion for killing. Usually MIC stands for the smallest concentration in the dilution series that meets the test's criterion for growth inhibition.

Structures are written as SMILES. Values after ≈ are worked out from the molar mass of the structure shown. Values joined by “and” are separate entries in the source; they are usually repeats but may differ in a detail not shown here. Equal entries are not always repeated. Where two headings read alike, the source gives them in different places.

In the case of `CN[C@H](CC(C)C)C(=O)N[C@H]1C(=O)N[C@@H](CC(N)=O)C(=O)N[C@H]2C(=O)N[C@H]3C(=O)N[C@H](C(=O)N[C@H](C(=O)O)c4cc(O)cc(O)c4-c4cc3ccc4O)[C@H](O)c3ccc(c(Cl)c3)Oc3cc2cc(c3O[C@@H]2O[C@H](CO)[C@@H](O)[C@H](O)[C@H]2O[C@H]2C[C@](C)(N)[C@H](O)[C@H](C)O2)Oc2ccc(cc2Cl)[C@H]1O` [vancomycin], in [1], the “MIC methicillin-resistant S. aureus” value is 1 µg/mL (≈ 0.69 µM).

As to `C[C@@H]1[C@H](O)[C@@H](C)/C=C/C=C/C=C/C=C/C=C/C=C/C=C/[C@H](O[C@@H]2O[C@H](C)[C@@H](O)[C@H](N)[C@@H]2O)C[C@@H]2O[C@](O)(C[C@@H](O)C[C@@H](O)[C@H](O)CC[C@@H](O)C[C@@H](O)CC(=O)O[C@H]1C)C[C@H](O)[C@H]2C(=O)O` [amphotericin B], the “MIC C. albicans” value in [2] is on record as 1.95 µg/mL (≈ 2.11 µM). The “MIC Aspergillus fumigatus” value in assay [3] is given as 1.95 µg/mL (≈ 2.11 µM).

On to `N[C@@H](C(=O)N[C@@H]1C(=O)N2C(C(=O)O)=C(Cl)CS[C@H]12)c1ccccc1` [cefaclor], for which the “MIC B. subtilis” value in assay [4] was 2.4 µg/mL (≈ 6.53 µM). Besides, in assay [5], the “MIC S. aureus” value is 2.4 µg/mL (≈ 6.53 µM).

As for `CC1(C)S[C@@H]2[C@H](NC(=O)[C@H](N)c3ccc(O)cc3)C(=O)N2[C@H]1C(=O)O` [amoxicillin], the “MIC E. coli” value in assay [6] is recorded as 0.01 µM (≈ 3.65 ng/mL).

Regarding `O=C(O)c1cn(C2CC2)c2cc(N3CCNCC3)c(F)cc2c1=O` [Cipro., ciprofloxacin], the “IZ S. aureus” value in assay [7] is recorded as 22 mm. Also, the IC50 in [8] was 23.9 ± 1.58 µM.

Take `N#Cc1c(-c2ccc(OCc3ccccc3)cc2)c(C(N)=O)c(N)n(N)c1=O` [Compound 3d, 1,2-diamino-4-(4-(benzyloxy)phenyl)-5-cyano-6-oxo-1,6-dihydropyridine-3-carboxamide]: the “MFC/ MIC ratio C. albicans” value in assay [9] is 4. Also, the MFC in [9] (Candida albicans, read-out: MFC C. albicans) came out at 500 µg/mL (≈ 1330 µM); in assay [13] (Saccharomyces cerevisiae, read-out: MFC S. cerevisiae), 62.5 µg/mL (≈ 166 µM). For the same molecule, in assay [10], the “MBC/ MIC ratio B. pumilus” value is 4. In addition, the MBC in assay [10] (Bacillus pumilus, read-out: MBC B. pumilus) came out at 62.5 µg/mL (≈ 166 µM); in [12] (Enterobacter cloacae, read-out: MBC E. cloacae), 31.3 µg/mL (≈ 83.4 µM); in [14] (Escherichia coli, read-out: MBC E. coli), 15.6 µg/mL (≈ 41.6 µM); in assay [16] (Enterococcus faecalis, read-out: MBC S. faecalis), 62.5 µg/mL (≈ 166 µM). Besides, the minimum inhibitory concentration (MIC) in assay [10] (Bacillus pumilus, read-out: MIC B. pumilus) was 15.6 µg/mL (≈ 41.6 µM); in assay [12] (Enterobacter cloacae, read-out: MIC E. cloacae) it was 7.81 µg/mL (≈ 20.8 µM); in assay [13] (Saccharomyces cerevisiae, read-out: MIC S. cerevisiae), 31.3 µg/mL (≈ 83.4 µM); in [14] (Escherichia coli, read-out: MIC E. coli), 3.91 µg/mL (≈ 10.4 µM); in assay [16] (Enterococcus faecalis, read-out: MIC S. faecalis) it was 15.6 µg/mL (≈ 41.6 µM). Besides, the IC50 is 48.8 ± 2.07 µM in [11]; 4.48 µM and 4.49 µM in assay [17]. The “MBC/ MIC ratio E. cloacae” value in assay [12] was 4. The “MFC/ MIC ratio S. cerevisiae” value in [13] turned out to be 2. Further, the “MBC/ MIC ratio E. coli” value in assay [14] is 4. Also, in assay [15], the “Time to bactericidal activity against E. coli” value was 90 to 120 min and 90 min. In assay [16], the “MBC/ MIC ratio S. faecalis” value turned out to be 4.

Take `[H]/N=C(/N)N[C@H]1[C@H](O)[C@@H](O)[C@H](O[C@@H]2O[C@@H](C)[C@](O)(C=O)[C@H]2O[C@@H]2O[C@@H](CO)[C@H](O)[C@@H](O)[C@@H]2NC)[C@@H](N/C(N)=N\[H])[C@@H]1O` [streptomycin]: in assay [18], the “IZ E. coli” value is given as 25 mm. In [19], the “IZ Pseudomonas aeruginosa” value is given as 24 mm.
